Usually IC50 stands for the midpoint of a concentration-inhibition curve.

The values below come from BindingDB's records for doi:10.1021/jm960395q (Shionogi, 1996).

In assay [1] the target is Phospholipase A2 (Homo sapiens, UniProt P04054). Nature of the assay: Inhibition of recombinant human secretory phospholipase A2 (sPLA2), chromogenic screening assay.
Assay [2] in a line: Inhibitory activity against recombinant human secretory phospholipase A2 (s-PLA2) by phosphatidylcholine/deoxycholate assay (PC/DOC).

Sequence of Phospholipase A2 (P04054 whole entry): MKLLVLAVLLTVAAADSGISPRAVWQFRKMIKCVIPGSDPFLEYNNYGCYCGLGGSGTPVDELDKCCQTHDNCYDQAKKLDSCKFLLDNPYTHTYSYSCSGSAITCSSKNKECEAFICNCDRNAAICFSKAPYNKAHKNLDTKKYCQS

On to `CCc1c(C(=O)C(N)=O)c2cc(OCCC(=O)O)ccn2c1Cc1ccccc1-c1ccccc1`, for which the IC50 in assay [1] is 240 nM.

For the molecule `CCc1c(C(=O)C(N)=O)c2cc(OCCCC(=O)O)ccn2c1Cc1ccccc1-c1ccccc1`, the IC50 in assay [1] came out at 140 nM.

With `CCc1c(C(=O)C(N)=O)c2cc(OCC(=O)O)ccn2c1Cc1ccccc1-c1ccccc1`, the concentration for half-maximal inhibition (IC50) in assay [1] is 1400 nM.

As for `CCc1c(CC(N)=O)c2c(OCC(O)CC)cccn2c1Cc1cccc(Cl)c1` (stereo not drawn) [2-[3-(3-Chloro-benzyl)-2-ethyl-8-(2-hydroxy-butoxy)-indolizin-1-yl]-acetamide], the 50% inhibitory concentration (IC50) in assay [1] is 19000 nM.

As for `CCc1c(C(=O)C(N)=O)c2c(OCc3ccccn3)cccn2c1Cc1ccccc1-c1ccccc1` [2-[3-Biphenyl-2-ylmethyl-2-ethyl-8-(pyridin-2-ylmethoxy)-indolizin-1-yl]-2-oxo-acetamide], the IC50 in assay [1] was 46 nM.

`CCc1c(C(=O)C(N)=O)c2c(OCc3ccncc3)cccn2c1Cc1ccccc1-c1ccccc1` [2-[3-Biphenyl-2-ylmethyl-2-ethyl-8-(pyridin-4-ylmethoxy)-indolizin-1-yl]-2-oxo-acetamide]: the IC50 in assay [1] was 83 nM.

On to `CCc1c(C(=O)C(N)=O)c2c(OCCC(=O)O)cccn2c1Cc1ccccc1-c1ccccc1` [3-(1-Aminooxalyl-3-biphenyl-2-ylmethyl-2-ethyl-indolizin-8-yloxy)-propionic acid], for which the figures for the concentration for half-maximal inhibition (IC50) in assay [2] and in assay [1] were 130 nM and 44 nM, respectively.

On to `CCc1c(C(=O)C(N)=O)c2c(OCCCC(=O)O)cccn2c1Cc1ccccc1` [4-(1-Aminooxalyl-3-benzyl-2-ethyl-indolizin-8-yloxy)-butyric acid], for which the IC50 in assay [1] was found to be 200 nM.

Consider `NC(=O)C(=O)c1c(C2CC2)c(Cc2ccccc2-c2ccccc2)n2cccc(OCCCC(=O)O)c12` [4-(1-Aminooxalyl-3-biphenyl-2-ylmethyl-2-cyclopropyl-indolizin-8-yloxy)-butyric acid], for which, in assay [1], the IC50 came out at 4400 nM.

Consider `CCc1c(C(=O)C(N)=O)c2c(OCCCC(=O)O)cccn2c1CC1CCCCC1` [4-(1-Aminooxalyl-3-cyclohexylmethyl-2-ethyl-indolizin-8-yloxy)-butyric acid], for which the IC50 in assay [1] was determined as 3400 nM.

With `CCc1c(Cc2ccccc2)c2ccc(OCCCC(=O)O)cn2c1C(=O)C(N)=O` [4-(3-Aminooxalyl-1-benzyl-2-ethyl-indolizin-6-yloxy)-butyric acid], in assay [1], the IC50 was 1100 nM.

With `CCc1c(CC(N)=O)c2c(OCCCC(=O)O)cccn2c1Cc1ccccc1-c1ccccc1` [4-(3-Biphenyl-2-ylmethyl-1-carbamoylmethyl-2-ethyl-indolizin-8-yloxy)-butyric acid], the IC50 in assay [1] was found to be 80 nM.

For the molecule `CCc1c(C(=O)C(N)=O)c2c(OCCCCC(=O)O)cccn2c1Cc1ccccc1-c1ccccc1` [5-(1-Aminooxalyl-3-biphenyl-2-ylmethyl-2-ethyl-indolizin-8-yloxy)-pentanoic acid], in assay [1], the IC50 came to 1300 nM.

Consider `COC(=O)COc1cccn2c(Cc3cccc4ccccc34)c(C3CC3)c(C(=O)C(N)=O)c12` [(1-Aminooxalyl-2-cyclopropyl-3-naphthalen-1-ylmethyl-indolizin-8-yloxy)-acetic acid methyl ester], for which the IC50 in assay [2] worked out at 200 nM; in assay [1] it was 23 nM.

For the molecule `CCc1c(C(=O)C(N)=O)c2c(OCC(=O)O)cccn2c1Cc1cccc2ccccc12` [(1-Aminooxalyl-2-ethyl-3-naphthalen-1-ylmethyl-indolizin-8-yloxy)-acetic acid], the IC50 came out at 24 nM in assay [2] and 5 nM in assay [1].

Turning to `CCCCCc1c(CC)c(C(=O)C(N)=O)c2c(OCC(=O)O)cccn12` [(1-Aminooxalyl-2-ethyl-3-pentyl-indolizin-8-yloxy)-acetic acid], the IC50 in assay [1] was determined as 62 nM.

For `CCc1c(C(=O)C(N)=O)c2c(OCC(=O)OC)cccn2c1CCc1ccccc1` [(1-Aminooxalyl-2-ethyl-3-phenethyl-indolizin-8-yloxy)-acetic acid methyl ester], the half-inhibitory concentration (IC50) in assay [1] was 51 nM.

With `CCc1c(C(=O)C(N)=O)c2c(OCC(=O)O)cccn2c1CCc1ccccc1` [(1-Aminooxalyl-2-ethyl-3-phenethyl-indolizin-8-yloxy)-acetic acid], in assay [1], the IC50 was 51 nM.

Consider `CCc1c(C(=O)C(N)=O)c2c(OCC(=O)O)cccn2c1Cc1cccs1` [(1-Aminooxalyl-2-ethyl-3-thiophen-2-ylmethyl-indolizin-8-yloxy)-acetic acid], for which the half-maximal inhibitory concentration (IC50) in assay [2] is 13 nM; in assay [1] it was 11 nM.

Regarding `NC(=O)C(=O)c1c(C2CC2)c(Cc2ccccc2)n2cccc(OCC(=O)O)c12` [(1-Aminooxalyl-3-benzyl-2-cyclopropyl-indolizin-8-yloxy)-acetic acid], the IC50 in assay [2] is 49 nM; in assay [1], 46 nM.

For `CCc1c(C(=O)C(N)=O)c2c(OCC(=O)O)cccn2c1Cc1ccccc1` [(1-Aminooxalyl-3-benzyl-2-ethyl-indolizin-8-yloxy)-acetic acid], the figures for the IC50 in assay [2] and in assay [1] were 5 nM and 8 nM, respectively.

`Cc1c(C(=O)C(N)=O)c2c(OCC(=O)O)cccn2c1Cc1ccccc1` [(1-Aminooxalyl-3-benzyl-2-methyl-indolizin-8-yloxy)-acetic acid]: the results for the IC50 in assay [2] and in assay [1] were 3 nM and 8 nM, respectively.

For the molecule `COC(=O)COc1cccn2c(Cc3ccccc3-c3ccccc3)c(C3CCCC3)c(C(=O)C(N)=O)c12` [(1-Aminooxalyl-3-biphenyl-2-ylmethyl-2-cyclopentyl-indolizin-8-yloxy)-acetic acid methyl ester], the IC50 in assay [1] turned out to be 280 nM.

In the case of `NC(=O)C(=O)c1c(C2CC2)c(Cc2ccccc2-c2ccccc2)n2cccc(OCC(=O)O)c12` [(1-Aminooxalyl-3-biphenyl-2-ylmethyl-2-cyclopropyl-indolizin-8-yloxy)-acetic acid], the IC50 in assay [2] stood at 6 nM; in assay [1] it was 9 nM.

In the case of `CCc1c(C(=O)C(N)=O)c2c(OCC(=O)OC)cccn2c1Cc1ccccc1-c1ccccc1` [(1-Aminooxalyl-3-biphenyl-2-ylmethyl-2-ethyl-indolizin-8-yloxy)-acetic acid methyl ester], the concentration for half-maximal inhibition (IC50) in assay [1] was 17 nM.

As to `COC(=O)COc1cccn2c(Cc3ccccc3-c3ccccc3)c(C(C)C)c(C(=O)C(N)=O)c12` [(1-Aminooxalyl-3-biphenyl-2-ylmethyl-2-isopropyl-indolizin-8-yloxy)-acetic acid methyl ester], in assay [1], the IC50 was determined as 35 nM.

In the case of `COc1c(C(=O)C(N)=O)c2c(OCC(=O)O)cccn2c1Cc1ccccc1-c1ccccc1` [(1-Aminooxalyl-3-biphenyl-2-ylmethyl-2-methoxy-indolizin-8-yloxy)-acetic acid], the IC50 was 13 nM in assay [2] and 15 nM in assay [1].

On to `COC(=O)COc1cccn2c(Cc3ccccc3-c3ccccc3)c(C)c(C(=O)C(N)=O)c12` [(1-Aminooxalyl-3-biphenyl-2-ylmethyl-2-methyl-indolizin-8-yloxy)-acetic acid methyl ester], for which the IC50 in assay [2] was determined as 1.4 nM; in assay [1], 8 nM.

On to `CSc1c(C(=O)C(N)=O)c2c(OCC(=O)O)cccn2c1Cc1ccccc1-c1ccccc1` [(1-Aminooxalyl-3-biphenyl-2-ylmethyl-2-methylsulfanyl-indolizin-8-yloxy)-acetic acid], for which the IC50 in assay [1] was 16 nM.

`COC(=O)COc1cccn2c(Cc3ccccc3-c3ccccc3)c(C(C)(C)C)c(C(=O)C(N)=O)c12` [(1-Aminooxalyl-3-biphenyl-2-ylmethyl-2-tert-butyl-indolizin-8-yloxy)-acetic acid methyl ester]: the half-maximal inhibitory concentration (IC50) in assay [1] was 100 nM.

For `CCc1c(C(=O)C(N)=O)c2c(OCC(=O)OC)cccn2c1Cc1cccc(-c2ccccc2)c1` [(1-Aminooxalyl-3-biphenyl-3-ylmethyl-2-ethyl-indolizin-8-yloxy)-acetic acid methyl ester], the half-inhibitory concentration (IC50) in assay [2] turned out to be 4.2 nM; in assay [1] it was 9 nM.

For the molecule `CCc1c(C(=O)C(N)=O)c2c(OCC(=O)O)cccn2c1CC1CCCCCC1` [(1-Aminooxalyl-3-cycloheptylmethyl-2-ethyl-indolizin-8-yloxy)-acetic acid], the results for the IC50 in assay [2] and in assay [1] were 100 nM and 23 nM, respectively.

For the molecule `COC(=O)COc1cccn2c(CC3CCCCC3)c(C3CC3)c(C(=O)C(N)=O)c12` [(1-Aminooxalyl-3-cyclohexylmethyl-2-cyclopropyl-indolizin-8-yloxy)-acetic acid methyl ester], the figures for the IC50 in assay [2] and in assay [1] were 160 nM and 43 nM, respectively.

Turning to `CCc1c(C(=O)C(N)=O)c2c(OCC(=O)O)cccn2c1CC1CCCCC1` [(1-Aminooxalyl-3-cyclohexylmethyl-2-ethyl-indolizin-8-yloxy)-acetic acid], the IC50 in assay [2] was 30 nM; in assay [1], 21 nM.

On to `NC(=O)C(=O)c1c(C2CC2)c(CC2CCCC2)n2cccc(OCC(=O)O)c12` [(1-Aminooxalyl-3-cyclopentylmethyl-2-cyclopropyl-indolizin-8-yloxy)-acetic acid], for which the IC50 in assay [2] turned out to be 88 nM; in assay [1] it was 29 nM.

Regarding `Cc1c(C(=O)C(N)=O)c2c(OCC(=O)O)cccn2c1CC1CCCC1` [(1-Aminooxalyl-3-cyclopentylmethyl-2-methyl-indolizin-8-yloxy)-acetic acid], the IC50 was 22 nM in assay [2] and 14 nM in assay [1].

For the molecule `CCc1c(C(N)=O)c2c(OCC(=O)O)cccn2c1Cc1cccc2ccccc12` [(1-Carbamoyl-2-ethyl-3-naphthalen-1-ylmethyl-indolizin-8-yloxy)-acetic acid], the IC50 was 135 nM in assay [2] and 30 nM in assay [1].

As for `Cc1c(C(=O)C(N)=O)c2c(OCC(=O)O)cccn2c1CC12C[C@H]3C[C@@H](C1)C[C@@H](C2)C3` [(3-Adamantan-1-ylmethyl-1-aminooxalyl-2-methyl-indolizin-8-yloxy)-acetic acid], in assay [1], the IC50 is 120 nM.

As to `CCc1c(C(=O)C(=O)N(C)C)c2c(OCC(=O)O)cccn2c1Cc1ccccc1` [(3-Benzyl-1-dimethylaminooxalyl-2-ethyl-indolizin-8-yloxy)-acetic acid], in assay [1], the IC50 was greater than 50000 nM.

As for `CCc1c(C(=O)C(=O)NC)c2c(OCC(=O)O)cccn2c1Cc1ccccc1` [(3-Benzyl-2-ethyl-1-methylaminooxalyl-indolizin-8-yloxy)-acetic acid], the IC50 in assay [1] is greater than 50000 nM.

As for `CCc1c(C(=O)C(N)=O)c2c(OCC(=O)O)cccn2c1Cc1cc(C(C)(C)C)cc(C(C)(C)C)c1` [[1-Aminooxalyl-3-(3,5-di-tert-butyl-benzyl)-2-ethyl-indolizin-8-yloxy]-acetic acid], the IC50 in assay [1] was 6600 nM.
